Results from patent US11000033B2, “Ketone or oxime compound, and herbicide” (NISSAN CHEMICAL CORPORATION, priority 2014, dated 2021).

Key:
Assay type in all cases: in vivo
rice = assay: Test Example 4: effect on crop by soil treatment (symbol b); settings: application herbicide amount 320 g/ha
How it was run: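 Grown at 25° C. to 30° C. in a greenhouse, the crops came from seed sown spot-wise in sterilized diluvial soil under roughly 1.5 cm of covering soil.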

Cyperus difformis = assay: Test Example 3: herbicidal effect by foliage application, Wagner pot (symbol E); settings: application herbicide amount 320 g/ha
How it was run: (§1)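 Rating at 3 weeks post-spray, by defined criteria. Treatment: emulsion diluted with water to a predetermined amount, applied evenly to foliage of 14-day-old plants raised in alluvial soil flooded 0.1–0.5 cm deep at 25–30 °C, rice co-sown.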

Apera spica-venti = assay: Test Example 4: herbicidal effect by soil treatment (symbol L); settings: application herbicide amount 320 g/ha
How it was run: (§2)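 Seeds were sown in sterilized diluvial soil, covered with about 1.5 cm of soil, and the soil surface was sprayed with a water-diluted emulsion of the compound at a predetermined rate. Plants grew in a greenhouse at 25° C. to 30° C.; effects were scored visually 3 weeks after application.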

Lolium multiflorum Lam. [1] = assay: Test Example 5: herbicidal effect by foliage application, plastic box (symbol K); settings: 320 g/ha, 3 weeks after application
How it was run: (§3)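 Seeds were sown in sterilized diluvial soil, covered with about 1.5 cm of soil and grown 14 days in a greenhouse at 25° C. to 30° C. An emulsifiable formulation diluted in water to a set rate was sprayed over foliage, and injury was scored 3 weeks later.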

[2] = test system: Echinochloa crus-galli var. crus-galli; assay: Test Example 4: herbicidal effect by soil treatment (symbol H); settings: application herbicide amount 320 g/ha
How it was run: as §2

[3] = test system: Echinochloa crus-galli var. crus-galli; assay: Test Example 3: herbicidal effect by foliage application, Wagner pot (symbol H); settings: application herbicide amount 320 g/ha
How it was run: as §1

Avena fatua = assay: Test Example 5: herbicidal effect by foliage application, plastic box (symbol I); settings: 320 g/ha, 3 weeks after application
How it was run: as §3

Alopecurus myosuroides = assay: Test Example 5: herbicidal effect by foliage application, plastic box (symbol J); settings: 320 g/ha, 3 weeks after application
How it was run: as §3

Scirpus juncoides = assay: Test Example 2: herbicidal activity, application during weed generation in submerged conditions (symbol B); settings: Table 23; application herbicide amount 320 g/ha; grade 0-5 by criteria of Test Example 1
How it was run: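 Flooded-soil post-emergence test: emulsion of compound, water-diluted to target rate, applied to paddy water surface at 1–2 leaf stage of mixed-sown weeds (alluvial soil, 4 cm water, 25–30° C. greenhouse); visual rating 3 weeks after application.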

wheat = assay: Test Example 5: effect on crop by foliage application, plastic box (symbol e); settings: 320 g/ha, 3 weeks after application
How it was run: (§4)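 Diluvial soil, sterilized and boxed (21 × 13 × 7 cm), received spot-sown seed covered by about 1.5 cm soil; plants were then greenhouse-grown at 25–30° C.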

Veronica persica = assay: Test Example 5: herbicidal effect by foliage application, plastic box (symbol R); settings: 320 g/ha, 3 weeks after application
How it was run: as §3

rice plant = assay: Test Example 5: effect on crop by foliage application, plastic box (symbol b); settings: 320 g/ha, 3 weeks after application
How it was run: as §4

Lolium multiflorum Lam. [4] = assay: Test Example 4: herbicidal effect by soil treatment (symbol K); settings: application herbicide amount 320 g/ha
How it was run: as §2

Setaria viridis = assay: Test Example 5: herbicidal effect by foliage application, plastic box (symbol G); settings: 320 g/ha, 3 weeks after application
How it was run: as §3

Stellaria media = assay: Test Example 5: herbicidal effect by foliage application, plastic box (symbol P); settings: 320 g/ha, 3 weeks after application
How it was run: as §3

corn = assay: Test Example 4: effect on crop by soil treatment (symbol c); settings: application herbicide amount 320 g/ha
How it was run: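 Seeds were sown in spots on sterilized diluvial soil in a plastic box and covered with about 1.5 cm of soil. Plants were then grown in a greenhouse at 25° C. to 30° C.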

| Structure (SMILES) | b: directly sowed rice plant, effect on crop grade (rice) | herbicidal effect on E, grade 0-5 (Cyperus difformis) | L: Apera spica-venti, herbicidal effect grade (Apera spica-venti) | K: Lolium multiflorum Lam., herbicidal effect grade (Lolium multiflorum Lam. [1]) | H: Echinochloa crus-galli var. crus-galli, herbicidal effect grade [2] | herbicidal effect on H (Echinochloa crus-galli var. crus-galli), grade 0-5 [3] | I: Avena fatua, herbicidal effect grade (Avena fatua) | J: Alopecurus myosuroides, herbicidal effect grade (Alopecurus myosuroides) | Herbicidal effect grade, B: Scirpus juncoides (Scirpus juncoides) | e: wheat, effect on crop grade (wheat) | R: Veronica persica, herbicidal effect grade (Veronica persica) | b: directly sowed rice plant, effect on crop grade (rice plant) | K: Lolium multiflorum Lam., herbicidal effect grade (Lolium multiflorum Lam. [4]) | G: Setaria viridis, herbicidal effect grade (Setaria viridis) | P: Stellaria media, herbicidal effect grade (Stellaria media) | c: corn, effect on crop grade (corn) | further results |
| --- | --- | --- | --- | --- | --- | --- | --- | --- | --- | --- | --- | --- | --- | --- | --- | --- | --- |
| CON=C(C)CC1CC(O)=C(c2c(C)cc(Br)cc2C)C1=O (stereo not shown) [6-003] | 5 (Herbicidal ratio of 90% or more (almost completely withered)) | 5 (Herbicidal ratio of 90% or more (almost completely withered)) | 5 (Herbicidal ratio of 90% or more (almost completely withered)) | 5 (Herbicidal ratio of 90% or more (almost completely withered)) | 5 (Herbicidal ratio of 90% or more (almost completely withered)) | 5 (Herbicidal ratio of 90% or more (almost completely withered)) | 5 (Herbicidal ratio of 90% or more (almost completely withered)) | 5 (Herbicidal ratio of 90% or more (almost completely withered)) | 1 (Herbicidal ratio of 5% or higher and lower than 20%) | 0 (Herbicidal ratio of 5% or lower (almost no effect)) | 0 (Herbicidal ratio of 5% or lower (almost no effect)) | 5 (Herbicidal ratio of 90% or more (almost completely withered)) | 5 (Herbicidal ratio of 90% or more (almost completely withered)) | 5 (Herbicidal ratio of 90% or more (almost completely withered)) | 2 (Herbicidal ratio of 20% or higher and lower than 40%) | 4 (Herbicidal ratio of 70% or higher and lower than 90%) |  |
| C=Cc1cc(C)c(C2=C(O)CC(CC(C)=NOC)C2=O)c(C)c1 (mixture of isomers) [6-031] | 0 (Herbicidal ratio of 5% or lower (almost no effect)) | 2 (Herbicidal ratio of 20% or higher and lower than 40%) | 0 (Herbicidal ratio of 5% or lower (almost no effect)) | 5 (Herbicidal ratio of 90% or more (almost completely withered)) | 0 (Herbicidal ratio of 5% or lower (almost no effect)) | 3 (Herbicidal ratio of 40% or higher and lower than 70%) | 5 (Herbicidal ratio of 90% or more (almost completely withered)) | 5 (Herbicidal ratio of 90% or more (almost completely withered)) | 0 (Herbicidal ratio of 5% or lower (almost no effect)) | 0 (Herbicidal ratio of 5% or lower (almost no effect)) | 1 (Herbicidal ratio of 5% or higher and lower than 20%) | 5 (Herbicidal ratio of 90% or more (almost completely withered)) | 3 (Herbicidal ratio of 40% or higher and lower than 70%) | 5 (Herbicidal ratio of 90% or more (almost completely withered)) | 0 (Herbicidal ratio of 5% or lower (almost no effect)) | 0 (Herbicidal ratio of 5% or lower (almost no effect)) |  |
| C=CC(=O)CC1CC(O)=C(c2c(C)cc(C)cc2C)C1=O (stereo not shown) [2-031] | 5 (Herbicidal ratio of 90% or more (almost completely withered)) | 5 (Herbicidal ratio of 90% or more (almost completely withered)) | 2 (Herbicidal ratio of 20% or higher and lower than 40%) | 5 (Herbicidal ratio of 90% or more (almost completely withered)) | 5 (Herbicidal ratio of 90% or more (almost completely withered)) | 5 (Herbicidal ratio of 90% or more (almost completely withered)) | 5 (Herbicidal ratio of 90% or more (almost completely withered)) | 5 (Herbicidal ratio of 90% or more (almost completely withered)) | 0 (Herbicidal ratio of 5% or lower (almost no effect)) | 0 (Herbicidal ratio of 5% or lower (almost no effect)) | 4 (Herbicidal ratio of 70% or higher and lower than 90%) | 5 (Herbicidal ratio of 90% or more (almost completely withered)) | 5 (Herbicidal ratio of 90% or more (almost completely withered)) | 5 (Herbicidal ratio of 90% or more (almost completely withered)) | 0 (Herbicidal ratio of 5% or lower (almost no effect)) | 5 (Herbicidal ratio of 90% or more (almost completely withered)) |  |
| C#CCOC1=C(c2c(C)cc(C)cc2C)C(=O)C(CC(C)=NOC)C1 (stereo not shown) [1-008] |  | 4 (Herbicidal ratio of 70% or higher and lower than 90%) |  | 5 (Herbicidal ratio of 90% or more (almost completely withered)) |  | 5 (Herbicidal ratio of 90% or more (almost completely withered)) | 4 (Herbicidal ratio of 70% or higher and lower than 90%) | 5 (Herbicidal ratio of 90% or more (almost completely withered)) | 2 (Herbicidal ratio of 20% or higher and lower than 40%) | 0 (Herbicidal ratio of 5% or lower (almost no effect)) | 0 (Herbicidal ratio of 5% or lower (almost no effect)) | 4 (Herbicidal ratio of 70% or higher and lower than 90%) |  | 5 (Herbicidal ratio of 90% or more (almost completely withered)) | 0 (Herbicidal ratio of 5% or lower (almost no effect)) |  | b (directly sowed rice plant) effect on crop grade (rice): 3 (Herbicidal ratio of 40% or higher and lower than 70%); L (Apera spica-venti) herbicidal effect grade (Apera spica-venti): 5 (Herbicidal ratio of 90% or more (almost completely withered)); H (Echinochloa crus-galli var. crus-galli) herbicidal effect grade [2]: 4 (Herbicidal ratio of 70% or higher and lower than 90%); K (Lolium multiflorum Lam.) herbicidal effect grade (Lolium multiflorum Lam. [4]): 5 (Herbicidal ratio of 90% or more (almost completely withered)); c (corn) effect on crop grade (corn): 0 (Herbicidal ratio of 5% or lower (almost no effect)) |
